The record followed here is patent US5098925A, “Spiro-dihydroisoindole compounds” (ICI Americas Inc., priority 1990, dated 1992).

Data set [1] has as its target phencyclidine (PCP) receptor of the NMDA receptor complex. The experiment in a line: [3H]-TCP binding (displacement of specific [3H]TCP binding). The arrangement: species or system Sprague-Dawley rats. As to conditions: [3H]-TCP 2.5 nM; rat cortex/hippocampus synaptic membranes; 30 min, 37° C., pH 7.7; read-out: IC50 value, 50% inhibition of total specific [3H]TCP binding. The text has this: The actions of compounds of formula I as an antagonist at the phencyclidine (PCP) receptor of the NMDA receptor complex can be shown using known in vitro tests, for example that described in Vignon et al., Brain Research, 280, 194-197 (1983). Vignon et al. disclose that tritiated N-(1-[2-thienyl]cyclohexyl)-3,4-[^3 H]-piperidine (also abbreviated as [^3 H]-TCP) binds to PCP binding sites (e.g. in rat brains) more strongly than PCP itself. […] [^3 H]-TCP thus provides a useful tool for measuring the binding affinities of compounds which bind to PCP receptors such as the PCP site in the NMDA receptor complex.
Specifically when it is desired to measure the binding affinity of a compound of formula I, a source of (brain) NMDA receptors is generated by preparing neuronal synaptic membranes from adult Sprague-Dawley rats. In brief, freshly dissected cortices and hippocampi were homogenized in 0.32 M sucrose (100 mg/ml). […]
The procedure for [^3 H]-TCP binding is adapted from Vignon et al. (1983). […] Non-specific binding is determined with 100 μM MK-801, a […] well known and characterized in the art as set forth for example, in European Patent Application 0 230 370, published July 29, 1987. […] Radioactivity is measured by liquid scintillation counting. The specific activity of the [^3 H]TCP is used to convert the radioactivity measured to concentration [^3 H]TCP bound. […]

The test system of data set [2] is neuronal damage in the hippocampus. Kind of data set: gerbil ischemic model (bilateral carotid occlusion, neuronal damage in the hippocampus). The format is in vivo, Mongolian gerbils. The conditions noted are these: ip dose of 60 mg/kg. As for the experimental part:
Typically an animal is rendered ischemic, for example, for transient occlusion of the carotid artery. A test compound is then administered to said ischemic animal at or about the time of the ischemica event. The ability of the test compound to reduce or prevent neurological degeneration may then be assessed, for example, by sacrificing the animal, followed by conventional histological examination of suitable brain tissue. For example, the following is a description of a suitable test in vivo using the gerbil model.
When testing in vivo using the gerbil ischemic model, adult female Mongolian gerbils (50-70 g) are anesthetized with 2 to 3% halothane. The bilateral common carotid arteries at the neck are exposed and occluded with microaneurysm clips. After 10 min (unless specified), the clips are removed and the blood flow through the carotid arteries is restored and the skin is sutured. […] Gross behavioral observations along with motor activity are recorded for 2 hr on the first (24 hr) day following the occlusion. […]
Sections (7 micron) are evaluated from each brain. […] The average brain damage rating score for each group is recorded, and the damage scores of the drug treated group are compared to the vehicle-treated group using Wilcoxcon ranks sum test.

Take `COc1cccc2c1CCC21NCc2ccccc21` (stereo not shown) [Example 18, 4-Methoxyspiro[indan-1,1'-(1,3-dihydroisoindole)]]: the IC50 (commonly the concentration needed to halve the response being measured) in data set [1] is 5000 nM.
Regarding `c1ccc2c(c1)CNC21CCCc2sccc21` (stereo not shown) [Example 20, Spiro[4,5,6,7-tetrahydrobenzothiophene-4,1'-(1,3-dihydroisoindole)]], in data set [1], the IC50 came out at 600 nM.
With `CN1Cc2ccccc2C12CCCc1sccc12` (stereo not shown) [Example 21, 2'-Methylspiro[4,5,6,7-tetrahydrobenzothiophene-4,1'-(1,3-dihydroisoindole)]], in data set [2], the neuroprotective effect entry is on record as “significant neuroprotective effect” and the overt toxic effects result was “without any overt toxic effects”.
